Patent US7648985B2, “Oxabispidine compounds and their use in the treatment of cardiac arrhythmias” (AstraZeneca AB, priority 2004, dated 2010)

Target: T1, HERG channel (Homo sapiens, UniProt Q12809)
T1 construct: expressed in transfected cells
Assay: Test B: R^+-Efflux Assay for Detection of HERG Channel Blockers
Assay type: cell-based
Details: depolarisation-induced Rb+ efflux from Chinese hamster ovary cells stably expressing the HERG-channel; read-out: pIC50 for HERG channel blockade (converted)
Description: The IC50 value for HERG channel blockade was determined using a high throughput functional assay based on depolarisation-induced R^+-efflux from Chinese hamster ovary cells stably expressing the HERG-channel.
Cells were grown in Ham F12 (Life Technologies 31765-027) supplemented with 10% FBS and 0.6 mg/mL hygromycin B and were routinely passaged twice-weekly. For experimental studies, cells were plated at a density of 15,000 cells/well in Falcon, 384-well tissue culture-treated black-walled clear-bottomed plates and were thereafter incubated overnight at 37° C. in a cell culture incubator.
Following incubating overnight, cell plates were washed and a Rb^+-Load buffer (a physiological buffer containing Rb^+) was added. Cell plates were then incubated for 3 hours and were thereafter washed. Following this wash, the test compounds were added. The cell plates were then incubated for another 10 minutes and, following this incubation period, external K^+ concentration was increased in order to depolarize the cells and activate HERG channels. After a ten minute exposure period to the increased K^+ concentration, supernatants were transferred to new microplates for subsequent determination of Rb^+ content, using Atomic Absorption Spectrometry analysis. […]
Compound activity was expressed as: […]

T1 sequence (Q12809 whole entry): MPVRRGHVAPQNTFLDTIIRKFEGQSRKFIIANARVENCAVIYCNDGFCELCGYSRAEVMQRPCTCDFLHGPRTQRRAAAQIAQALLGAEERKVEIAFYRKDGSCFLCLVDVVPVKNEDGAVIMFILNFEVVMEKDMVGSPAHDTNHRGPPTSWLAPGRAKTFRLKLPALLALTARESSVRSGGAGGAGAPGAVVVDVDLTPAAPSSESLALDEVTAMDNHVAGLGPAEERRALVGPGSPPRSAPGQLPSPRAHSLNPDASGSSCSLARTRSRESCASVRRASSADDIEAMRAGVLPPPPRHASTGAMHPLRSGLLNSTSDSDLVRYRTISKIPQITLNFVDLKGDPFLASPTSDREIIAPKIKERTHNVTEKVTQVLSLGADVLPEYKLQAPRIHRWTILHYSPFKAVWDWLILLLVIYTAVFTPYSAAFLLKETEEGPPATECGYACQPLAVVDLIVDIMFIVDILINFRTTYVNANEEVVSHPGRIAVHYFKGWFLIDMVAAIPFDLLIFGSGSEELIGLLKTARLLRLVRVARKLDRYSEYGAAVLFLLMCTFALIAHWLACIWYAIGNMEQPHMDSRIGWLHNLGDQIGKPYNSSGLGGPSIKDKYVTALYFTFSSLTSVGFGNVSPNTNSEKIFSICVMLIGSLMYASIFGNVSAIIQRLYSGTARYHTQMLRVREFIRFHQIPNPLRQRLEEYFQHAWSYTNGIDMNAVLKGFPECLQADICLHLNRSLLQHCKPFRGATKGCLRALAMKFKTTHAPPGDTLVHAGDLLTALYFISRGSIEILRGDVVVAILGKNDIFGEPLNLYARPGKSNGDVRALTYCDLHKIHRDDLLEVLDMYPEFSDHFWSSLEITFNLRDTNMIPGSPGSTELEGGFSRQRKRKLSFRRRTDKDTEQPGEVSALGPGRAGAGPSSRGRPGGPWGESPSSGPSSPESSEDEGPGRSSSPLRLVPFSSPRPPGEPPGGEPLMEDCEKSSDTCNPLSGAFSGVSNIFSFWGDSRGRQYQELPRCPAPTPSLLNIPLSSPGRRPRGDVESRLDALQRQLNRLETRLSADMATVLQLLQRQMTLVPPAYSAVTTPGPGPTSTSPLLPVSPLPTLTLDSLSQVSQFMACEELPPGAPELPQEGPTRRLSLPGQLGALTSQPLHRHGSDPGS

Cc1noc(C)c1S(=O)(=O)NCCN1CC2CN(CCOc3ccc(C#N)cc3)CC(C1)O2 [Example 9, N-(2-{7-[2-(4-cyanophenoxy)ethyl]-9-oxa-3,7-diazabicyclo[3.3.1]non-3-yl}ethyl)-3,5-dimethylisoxazole-4-sulfonamide]
IC50: 3.24 µM
